Where a SMILES comes first, the peptide text is derived from it. The star is where a group is joined. Decanoyl = CCCCCCCCCC(=O)*; Cbz = O=C(OCc1ccccc1)*; CH2Cl = ClC*
Legend:
[1] = test system: TGFalpha release, HEK293T cells; assay: Time course after PMA induction of HEK293T cells overexpressing pro-TGFalpha, with protease inhibitors; type: cell-based, human
Method: Cell culture and cell-based rhomboid cleavage assay. Cells were propagated in DMEM supplemented with 10% fetal calf serum. COS-7 cells were transfected in 35 mm wells with FuGENE 6 (Roche) as described (7). In brief, 250 ng plasmid encoding the substrate (as indicated in the description of the figures), 25 ng for the rhomboid tested, 50 ng for the GRP receptor and empty plasmid to bring the total DNA to 1 μg was used. For protease titration, 2.5 ng to 250 ng plasmid coding RHBDL4 was used. HeLa and HEK293T were transfected with polyethyleneimine (linear, MW 25000; Polysciences) as described (32) using twice the amount of DNA as used with FuGENE. Transfection efficiency was monitored by co-transfection of pEGFP (Invitrogen). Sixteen hours post transfection, medium was replaced with serum-free medium containing 10 μM BB94 (British Biotech) unless otherwise stated. For activation of endogenous rhomboid activity, phorbol 12-myristate 13-acetate (PMA) (1 μM, from Sigma) or bombesin (100 nM, from Sigma) was added to the cell medium. For inhibitor studies, the indicated protease inhibitors (from Calbiochem), diluted from a stock solution in DMSO, were compared with a carrier only. Medium was harvested typically after 24 to 30 hours; for inhibitor studies using 3,4-Dichloroisocoumarin (DCI) a time course with 0 minutes, 30 minutes and 4 hours was performed (FIG. 4C). Cells were solubilized in SDS-sample buffer and analyzed by SDS-PAGE. EndoH (New England Biolabs) and PNGaseF (New England Biolabs) treatment of SDS-solubilized cell extracts was performed according to the manufacturers instructions. Conditioned media were centrifuged for 10 minutes at full speed in a microfuge to remove cell debris, and subsequently proteins in the supernatant were precipitated by adding trichloroacetic acid (TCA) to 10%. The precipitate was recovered by centrifugation, washed with acetone and dissolved in SDS-PAGE sample buffer and analyzed by SDS-PAGE. Alternatively to TCA precipitation, TGFalpha-H8 in conditioned medium was captured by metal-chelate chromatography using Ni-NTA agarose beads (Qiagen) in the presence of 20 mM imidazole at pH 8.0. Subsequently beads were washed with 20 mM Tris-Cl pH 8.0, 50 mM imidazole, eluted with SDS-sample buffer and analyzed by SDS-PAGE and Western blotting (see below). Typically, from a 35 mm tissue culture dish, 10% of cell extracts and 20% of tissue culture supernatant were loaded. To increase the sensitivity, for experiments shown in FIGS. 1C, 3E, 4A and 4C, five times the amount of the media fractions were loaded.
Western blotting. Proteins were analyzed by 4-20% Tris-Glycine gradient gels (Invitrogen) followed by Western blot analysis using either anti FLAG M2-HRP (1:1000; Sigma), anti HA antibody 16B12 (1:1000; Covance), anti actin antibody ab8227 (1:5000; Abcam) or affinity purified polyclonal rabbit antibody anti RHBDL4 (1:4000; see above). In order to detect the 6 kDa form of TGFalpha, proteins were transferred on PVDF membrane with 0.2 μm pore size (Millipore) and probed with 1:100 anti TGFalpha antibody 134A-2B3 (Oncogene). For the detection of phosphorylated EGFR, PVDF membranes were blocked in 3% BSA in TBS-Tween supplemented with 200 μM NaVO3. Protein was detected with anti phospho-EGFR antibody 9H2 (1:2000, Upstate). […] Bound antibodies were detected by incubation with secondary antibody (Santa Cruz Biotechnology) followed by enhanced chemiluminescence (Amersham Biosciences).

protein kinase C (PKC) = assay: PMA-induced TGFalpha shedding (transactivation); type: cell-based; conditions: PMA 1 μM
Method: (§1) Cell culture and cell-based rhomboid cleavage assay. Cells were propagated in DMEM supplemented with 10% fetal calf serum. COS-7 cells were transfected in 35 mm wells with FuGENE 6 (Roche) as described (7). In brief, 250 ng plasmid encoding the substrate (as indicated in the description of the figures), 25 ng for the rhomboid tested, 50 ng for the GRP receptor and empty plasmid to bring the total DNA to 1 μg was used. For protease titration, 2.5 ng to 250 ng plasmid coding RHBDL4 was used. HeLa and HEK293T were transfected with polyethyleneimine (linear, MW 25000; Polysciences) as described (32) using twice the amount of DNA as used with FuGENE. Transfection efficiency was monitored by co-transfection of pEGFP (Invitrogen). […] Cells were solubilized in SDS-sample buffer and analyzed by SDS-PAGE. […] The precipitate was recovered by centrifugation, washed with acetone and dissolved in SDS-PAGE sample buffer and analyzed by SDS-PAGE. […] Subsequently beads were washed with 20 mM Tris-Cl pH 8.0, 50 mM imidazole, eluted with SDS-sample buffer and analyzed by SDS-PAGE and Western blotting (see below). […]
(§2) Western blotting. […] Protein was detected with anti phospho-EGFR antibody 9H2 (1:2000, Upstate). […] Bound antibodies were detected by incubation with secondary antibody (Santa Cruz Biotechnology) followed by enhanced chemiluminescence (Amersham Biosciences).

proteasome = assay: Proteasome inhibitor treatment of cells expressing pro-TGFalpha; type: cell-based
Method: as §1, with “(Invitrogen). Sixteen hours post transfection, medium was replaced with serum-free medium containing 10 μM BB94 (British Biotech) unless otherwise stated. For activation of endogenous rhomboid activity, phorbol 12-myristate 13-acetate (PMA) (1 μM, from Sigma) or bombesin (100 nM, from Sigma) was added to the cell medium.” for “(Invitrogen).”

pro-TGFalpha shedding = assay: BB94 sensitivity of endogenous pro-TGFalpha shedding and trimming (cell-based cleavage assay)
Method: as §1, with “(Invitrogen). Sixteen hours post transfection, medium was replaced with serum-free medium containing 10 μM BB94 (British Biotech) unless otherwise stated. For activation of endogenous rhomboid activity, phorbol 12-myristate 13-acetate (PMA) (1 μM, from Sigma) or bombesin (100 nM, from Sigma) was added to the cell medium.” for “(Invitrogen).”
Western blotting. Proteins were analyzed by 4-20% Tris-Glycine gradient gels (Invitrogen) followed by Western blot analysis using either anti FLAG M2-HRP (1:1000; Sigma), anti HA antibody 16B12 (1:1000; Covance), anti actin antibody ab8227 (1:5000; Abcam) or affinity purified polyclonal rabbit antibody anti RHBDL4 (1:4000; see above). […] Protein was detected with anti phospho-EGFR antibody 9H2 (1:2000, Upstate). […] Bound antibodies were detected by incubation with secondary antibody (Santa Cruz Biotechnology) followed by enhanced chemiluminescence (Amersham Biosciences).

[2] = test system: HB-EGF shedding, COS-7 cells; assay: HB-EGF secretion in COS-7 cells overexpressing the bombesin receptor; type: cell-based, green monkey
Method: Cells were propagated in DMEM supplemented with 10% fetal calf serum. COS-7 cells were transfected in 35 mm wells with FuGENE 6 (Roche) as described (7). In brief, 250 ng plasmid encoding the substrate (as indicated in the description of the figures), 25 ng for the rhomboid tested, 50 ng for the GRP receptor and empty plasmid to bring the total DNA to 1 μg was used. […] Transfection efficiency was monitored by co-transfection of pEGFP (Invitrogen). Sixteen hours post transfection, medium was replaced with serum-free medium containing 10 μM BB94 (British Biotech) unless otherwise stated. For activation of endogenous rhomboid activity, phorbol 12-myristate 13-acetate (PMA) (1 μM, from Sigma) or bombesin (100 nM, from Sigma) was added to the cell medium. For inhibitor studies, the indicated protease inhibitors (from Calbiochem), diluted from a stock solution in DMSO, were compared with a carrier only. […] Cells were solubilized in SDS-sample buffer and analyzed by SDS-PAGE. […] Conditioned media were centrifuged for 10 minutes at full speed in a microfuge to remove cell debris, and subsequently proteins in the supernatant were precipitated by adding trichloroacetic acid (TCA) to 10%. The precipitate was recovered by centrifugation, washed with acetone and dissolved in SDS-PAGE sample buffer and analyzed by SDS-PAGE. […]

mouse RHBDL4 = target: T1, mouse RHBDL4 (Mus musculus, UniProt Q8BHC7); assay: Cell-based rhomboid cleavage assay: pro-TGFalpha cleavage by overexpressed RHBDL4; set-up: expressed in transfected cells; host or cells: COS-7 (also HeLa and HEK293T), pcDNA3.1
T1 sequence (Q8BHC7 1-315): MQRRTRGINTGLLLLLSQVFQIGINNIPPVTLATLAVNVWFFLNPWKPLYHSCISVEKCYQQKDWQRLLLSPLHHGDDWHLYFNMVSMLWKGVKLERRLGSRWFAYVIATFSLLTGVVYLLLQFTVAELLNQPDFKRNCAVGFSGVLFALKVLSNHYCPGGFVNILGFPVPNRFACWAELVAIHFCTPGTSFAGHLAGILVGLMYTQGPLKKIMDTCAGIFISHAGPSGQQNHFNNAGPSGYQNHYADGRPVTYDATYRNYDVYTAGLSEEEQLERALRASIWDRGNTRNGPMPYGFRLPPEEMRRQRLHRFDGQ
Method: as §1, §2

[3] = target: T2, in vitro translated substrate comprising the transmembrane domain of Drosophila Gurken, P42287
T2 chain: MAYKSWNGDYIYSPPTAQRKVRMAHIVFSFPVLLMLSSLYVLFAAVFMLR

[4] = target: human pro-TGFalpha, P01135
Sequence of human pro-TGFalpha, P01135 (P01135 whole entry, looked up): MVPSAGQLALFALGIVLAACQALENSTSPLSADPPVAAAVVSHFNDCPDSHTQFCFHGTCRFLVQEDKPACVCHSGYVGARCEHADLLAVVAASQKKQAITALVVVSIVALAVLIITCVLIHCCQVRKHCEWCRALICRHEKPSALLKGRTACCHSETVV

Drosophila Spitz, Q01083 = target: T3, Drosophila Spitz, Q01083
T3 chain: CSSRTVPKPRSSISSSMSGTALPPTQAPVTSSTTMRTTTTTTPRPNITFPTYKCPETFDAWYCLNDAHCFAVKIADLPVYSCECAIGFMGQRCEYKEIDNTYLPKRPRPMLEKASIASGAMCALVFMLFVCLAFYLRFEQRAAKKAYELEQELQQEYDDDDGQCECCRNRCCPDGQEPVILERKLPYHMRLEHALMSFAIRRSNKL

[5] = BB94 20 μM, FLAG6-tagged pro-TGFalpha

beta-secretase inhibitor IV
Generation and release of the higher molecular weight form of TGFalpha ([1]; inhibitor 10 μM): none of these inhibitors of known proprotein convertases had an effect

CCCCCCCCCCCCCC(=O)O[C@@H]1[C@@H](C)[C@@]2(O)[C@@H](C=C(CO)C[C@]3(O)C(=O)C(C)=C[C@@H]23)[C@@H]2C(C)(C)[C@]12OC(C)=O [PMA, phorbol 12-myristate 13-acetate]
BB94-insensitive TGFalpha release activity (protein kinase C (PKC)): induced | BB94-sensitive (metalloprotease dependent) trimming of TGFalpha (protein kinase C (PKC)): enhanced

CC[C@H](C)[C@H](NC(=O)[C@H]([C@@H](C)CC)N(C)C(C)=O)C(=O)N[C@H](C(=O)N[C@@H](CC(C)C)C(=O)[C@@]1(C)CO1)[C@@H](C)O [epoxomicin]
Effect on pro-TGFalpha forms (proteasomal degradation) (proteasome; 2 μM): led to unglycosylated TGFalpha

CC(C)C[C@H](CC(=O)NO)C(=O)N[C@H](C(=O)N[C@@H](C)C(=O)NCCN)C(C)(C)C [TAPI-2]
Generation and release of the higher molecular weight form of TGFalpha ([1]; inhibitor 20 μM): none of these inhibitors of known proprotein convertases had an effect

CC(C)C[C@@H](C=O)NC(=O)[C@H](CC(C)C)NC(=O)[C@H](CC(C)C)NC(=O)OCc1ccccc1 [MG132] (Cbz-Leu-Leu-Leu-aldehyde)
Effect on pro-TGFalpha forms (proteasomal degradation) (proteasome; 5 μM): led to unglycosylated TGFalpha

CCCCCCCCCC(=O)N[C@@H](CCCN=C(N)N)C(=O)N[C@H](C(=O)N[C@@H](CCCCN)C(=O)N[C@@H](CCCN=C(N)N)C(=O)CCl)C(C)C [furin inhibitor I] (Decanoyl-RVKR-CH2Cl)
Generation and release of the higher molecular weight form of TGFalpha ([1]; inhibitor 100 μM): none of these inhibitors of known proprotein convertases had an effect

CNC(=O)[C@H](Cc1ccccc1)NC(=O)[C@H](CC(C)C)[C@H](CSc1cccs1)C(=O)NO [BB94]
Generation of the higher MW forms of TGFalpha by endogenous shedding: sensitivity to inhibitor (pro-TGFalpha shedding; [5]): insensitive | Trimming to smaller intermediates and species lacking the pro-peptide (pro-TGFalpha shedding; [5]): blocked | Processing of the 37 kDa form to the 6 kDa secreted bioactive ligand: sensitivity to inhibitor (pro-TGFalpha shedding; bombesin-treated COS-7 cells overexpressing the bombesin receptor): sensitive | Release of the 6 kDa form of TGFalpha ([1]; BB94 20 μM, PMA induction, HEK293T): inhibited | Bombesin-enhanced HB-EGF release: sensitivity to inhibitor ([2]; BB94 20 μM, bombesin treatment): insensitivity | HB-EGF shedding by ADAM proteases in unstimulated cells: sensitivity to inhibitor ([2]; unstimulated cells, BB94): sensitive | RHBDL4 cleavage of pro-TGFalpha: sensitivity to inhibitor (mouse RHBDL4; COS-7 cells, BB94 10 μM): insensitive | RHBDL4-triggered TGFalpha release: sensitivity to inhibitor (mouse RHBDL4; HEK293T cells, TGFalpha with juxtamembrane His8-tag): insensitive

B1: recombinant mouse RHBDL1 from E. coli (protein)
chain: MDRSSLLQLIQEQQLDPENTGFIGADTFAGLVHSHELPLDPTKLDMLVALAQSNERGQVCYQELVDLISSKRSSSFKRAIANGQRALPRDGLLDEPGLSVYKRFVRYVAYEILPCEVDRRWYFYRHRTCPPPVFMASVTLAQIIVFLCYGARLNKWVLQTYHPEYMKSPLVYHPGHRARAWRFLTYMFMHVGLEQLGFNALLQLMIGVPLEMVHGVLRISLLYLAGVLAGSLTVSITDMRAPVVGGSGGVYALCSAHLANVVMNWAGMRCPYKLLRMVLALVCMSSEVGRAVWLRFSPPLPASGPQPSFMAHLAGAVVGVSMGLTILRSYEERLRDQCGWWVVLLAYGTFLLFAIFWNVFAYDLLGADIPPPP
in vitro cleavage assay (SDS-PAGE, decrease of intact substrate band) [3]: The substrate was cleaved, as indicated by the decreased amount of intact substrate band

B2: mouse RHBDL1 with an N-terminal HA3-tag (protein)
chain: B1 chain
secreted 37 kDa product, FLAG6-tagged pro-TGFalpha (Western blot) [4]: overexpression of RHBDL1 caused a minor increase of secreted 37 kDa product

B3: mouse RHBDL4 with an N-terminal HA3-tag (protein)
chain: T1 sequence (Q8BHC7 1-315)
cleavage (Drosophila Spitz, Q01083): Note that RHBDL4 cleaves Spitz | cleavage of pro-TGFalpha, titration of protease plasmid (Western blot) [4]: cleavage of TGFalpha requires sub-stoichiometric amounts of RHBDL4

B4: recombinant mouse RHBDL4, C-terminally His6-tagged, from E. coli (protein)
chain: T1 sequence (Q8BHC7 1-315)
in vitro cleavage assay (SDS-PAGE, decrease of intact substrate band) [3]: The substrate was cleaved, as indicated by the decreased amount of intact substrate band

B5: recombinant human RHBDL2 from E. coli (protein)
chain: MAAVHDLEMESMNLNMGREMKEELEEEEKMREDGGGKDRAKSKKVHRIVSKWMLPEKSRGTYLERANCFPPPVFIISISLAELAVFIYYAVWKPQKQWITLDTGILESPFIYSPEKREEAWRFISYMLVHAGVQHILGNLCMQLVLGIPLEMVHKGLRVGLVYLAGVIAGSLASSIFDPLRYLVGASGGVYALMGGYFMNVLVNFQEMIPAFGIFRLLIIILIIVLDMGFALYRRFFVPEDGSPVSFAAHIAGGFAGMSIGYTVFSCFDKALLKDPRFWIAIAAYLACVLFAVFFNIFLSPAN
in vitro cleavage assay (SDS-PAGE, decrease of intact substrate band) [3]: The substrate was cleaved, as indicated by the decreased amount of intact substrate band

From US20100173972A1, “METHODS AND USES RELATED TO RHBDL4” (MEDICAL RESEARCH COUNCIL, priority 2007, published 2010)
